# Reference: paper PMC7284918, “In-Depth Characterization of EpiIntestinal Microtissue as a Model for Intestinal Drug Absorption and Metabolism in Human” (Pharmaceutics, 2020)
# Like-named read-outs stand apart in the source and are kept apart here. Marks after values point to notes of the source that are not given here.
# Columns and labels:
# Caco-2 cells [1] = assay: Bidirectional permeability assay in Caco-2; format: in vitro ADME, human; conditions: Ko-143 3 µM, zosuquidar 5 µM
# [2] = test system: EpiIntestinal microtissues; assay: Bidirectional permeability assay in EpiIntestinal microtissues; format: in vitro ADME, human; conditions: Ko-143 3 µM, zosuquidar 5 µM
# Procedure: Caco-2 cells were obtained from Leibniz Institute DSMZ-German Collection of Microorganisms and Cell Cultures (Braunschweig, Germany) and cultured in DMEM containing 10% FCS, 1% NEAA, 2 mM Glutamin, 100 U/mL Penicillin and 100 µg/mL Streptomycin. […] EpiIntestinal microtissues were obtained from MatTek (Bratislav, Slovakia) and cultured according to the manufacturer’s instruction (24-well format for bidirectional permeability assays and GI firstpass availability assays and 96-well format for screening of DME activities).
# Bidirectional permeability assays were performed as described previously. […] In indicated experiments, inhibitors were added to both compartments. Cells were incubated with the compounds for up to 2 h. Samples from the opposite compartment were taken at different timepoints. […] Prior to bioanalysis samples were spiked with internal standard solution and diluted with acetonitrile (ACN) for protein precipitation. Measurement was operated in multiple reaction monitoring (MRM) mode. Quantification was performed using external calibration. Apparent permeability coefficients in the apical to basal direction (Papp,AB) and in the basal to apical direction (Papp,BA) and efflux were calculated as follows Papp,AB=QAB/(C0×s×t) Papp,BA=QBA/(C0×s×t) Efflux=Papp,BA/Papp,AB where Q is the amount of compound recovered in the receiver compartment after the incubation time t, C0 the initial compound concentration given to the donor compartment, and s the surface area of the Transwell inserts. Efflux ratio is calculated as the quotient of Papp,BA to Papp,AB. […] In addition, Transepithelial electrical resistance (TEER) values are measured for each plate before the permeability assay and total recovery in donor and receiver compartments was determined for each compound. All these parameters (efflux of apafant, Papp values of the low permeable compound, TEER values, and total recovery) are used to ensure the quality of the assays.
# CYP1A2 [3] = biological target: T1, CYP1A2 (Homo sapiens, UniProt P05177)
# T1 sequence (P05177 1-516): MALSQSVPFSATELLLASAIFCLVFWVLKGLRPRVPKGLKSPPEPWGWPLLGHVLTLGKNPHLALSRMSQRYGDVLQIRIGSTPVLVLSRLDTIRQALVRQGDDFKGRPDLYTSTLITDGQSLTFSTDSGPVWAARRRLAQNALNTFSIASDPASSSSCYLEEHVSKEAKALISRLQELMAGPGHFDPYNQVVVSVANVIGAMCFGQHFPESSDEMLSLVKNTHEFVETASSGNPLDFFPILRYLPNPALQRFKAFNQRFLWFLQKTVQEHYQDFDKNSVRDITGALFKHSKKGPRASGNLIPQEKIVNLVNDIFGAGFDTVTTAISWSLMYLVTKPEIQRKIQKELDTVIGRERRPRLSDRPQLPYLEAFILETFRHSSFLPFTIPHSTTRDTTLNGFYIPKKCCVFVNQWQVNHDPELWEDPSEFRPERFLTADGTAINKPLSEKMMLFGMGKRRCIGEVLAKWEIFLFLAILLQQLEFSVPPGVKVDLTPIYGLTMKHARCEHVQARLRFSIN
# Procedure: (§1) For measurements of DME activities in EpiIntestinal microtissues and Caco-2 cells, both were cultured in 96-well Transwell inserts. Drugs (Table 1) were dissolved in the respective solvent at 200x concentration and diluted in a pre-warmed transport buffer. Diluted substrate solution was applied to the apical (100 µL) and basal (250 µL) compartment of the Transwell and incubated at 37 °C and 5% CO2 and 60 rpm continuous shaking. DME activities were determined by monitoring metabolite formation in basal compartment over time (0, 0.5, 1, 2, 3 and 4 h) with LC-MS/MS. […] Chromatographic separation of samples was performed on YMC Triart C18 (1.9 µm, 30 × 2 mm; YMC Europe, Dinslaken, Germany) LC analytical column. Quantification of all metabolites listed in Table 1 was achieved by the use of calibration curves for the individual metabolites with appropriate concentration ranges.
# (§2) A total of 10 µL of the incubation sample were diluted with 90 µL of water containing 10–20% ACN or methanol, 0.1% formic acid and the respective internal standard. To analyze the intracellular metabolite concentration, cells on Transwell inserts were washed twice with ice-cold PBS and stored at −80 °C for 20 min. Afterwards, 150 µL 50% ACN diluted with transport buffer was added to the cells and incubated at room temperature for 30 min. Cell lysate was transferred to a fresh 96-well plate and centrifuged at 4 °C, 4000 rpm for 10 min. Subsequently, 10 µL of the supernatant were diluted with 90 µl water containing 10–20% ACN or methanol, 0.1% formic acid and the respective internal standard. A total of 2 µL sample was injected into the LC-MS/MS system operated with an electrospray ionization source.
# CYP1A2 [4] = biological target: T1, CYP1A2; remark: listed apart in the source
# Procedure: as §1
# A total of 10 µL of the incubation sample were diluted with 90 µL of water containing 10–20% ACN or methanol, 0.1% formic acid and the respective internal standard. To analyze the intracellular metabolite concentration, cells on Transwell inserts were washed twice with ice-cold PBS and stored at −80 °C for 20 min. Afterwards, 150 µL 50% ACN diluted with transport buffer was added to the cells and incubated at room temperature for 30 min. […]
# [5] = Clinical pharmacokinetic data and calculated Fa × Fg in human; format: in vivo; conditions: calculated from clinical pharmacokinetic data (Section 2.8, Table 2)
# Source text: A set of 12 marketed drugs are selected for the evaluation of EpiIntestinal microtissues.
# [6] = Intestinal first-pass availability in EpiIntestinal microtissues; format: in vitro ADME, human; conditions: human, 10 µM apical
# Procedure: (§3) Compounds were diluted in culture media to a final concentration of 10 µM and added to the apical (donor) compartment (total volume: 100 µL for EpiIntestinal and 200 µL for Caco-2). After the incubation at 37 °C for 2, 4, 6, and 24 h, samples (50 µL) were taken from the basal (receiver) compartment (total volume: 5000 µL for EpiIntestinal and 800 µL for Caco-2). After the last timepoint, samples from the donor compartments and the cell lysates were also collected. Compound concentrations in the samples were determined by HPLC-MS/MS (Section 2.3).
# (§4) GI first-pass availability of the tested compounds was expressed as fraction (%) of the total amount of a compound added to the donor compartment recovered in the receiver compartment.
# [7] = human, cited from earlier work
# CYP3A4 = conditions: Caco-2
# Procedure: as §1, §2
# [8] = test system: EpiIntestinal microtissues; assay: Intestinal first-pass availability in EpiIntestinal microtissues; format: in vitro ADME, human
# Procedure: as §3, §4
# [9] = Intestinal first-pass availability in Caco-2; format: in vitro ADME, human; conditions: human, Caco-2, Caco-2, 10 µM apical, read-out: Recovery in basal/receiver compartment after 24 h
# Procedure: as §3, §4
# Caco-2 cells [10] = assay: Intestinal first-pass availability in Caco-2; format: in vitro ADME, human; conditions: Caco-2
# Procedure: as §3, §4
# in vitro = conditions: human, plasma
# Source text: Blood CLb can be converted from plasma clearance CLp with the blood-to-plasma ratio RB: CLb=CLp/RB
# [11] = test system: EpiIntestinal microtissues; assay: Metabolite identification in EpiIntestinal microtissues; format: in vitro ADME, human; conditions: 10 µM, peak areas at end of incubation
# Procedure: (§5) Raloxifene or ezetimibe (10 µM) in culture media was added to the apical compartment of EpiIntestinal microtissues or incubated with cryopreserved human intestinal mucosa (HIM). […] Analysis was performed on a LC-MS system containing a Vanquish UPLC (ThermoFisher Scientific, San Jose, CA, USA) coupled to an Orbitrap FusionTribrid high resolution mass spectrometer (ThermoFisher Scientific). Structure elucidation was based on exact mass measurements in combination with the interpretation of fragment spectra.
# [12] = test system: human intestinal mucosa (HIM); assay: Metabolite identification in cryopreserved human intestinal mucosa (HIM); format: in vitro ADME; conditions: 10 µM, peak areas at end of incubation
# Procedure: as §5
# [13] = EpiIntestinal microtissues, GI firstpass availability, read-out: Recovery in Basal Comp. @ 24h (%)
# [14] = clinical, ref Prescription information at fda.gov
structure (smiles),measurement,setting,value
O[C@@H](COc1cccc2ncccc12)CN1CCN([C@@H]2c3ccccc3[C@@H]3[C@H](c4ccccc42)C3(F)F)CC1 [zosuquidar],Effect of inhibitor on the efflux of rosuvastatin,Caco-2 cells [1],minor effect
same,Effect of inhibitor on the efflux of rosuvastatin,[2],minor effect
CCOc1ccc(NC(C)=O)cc1 [Phenacetin],Intracellular Metabolite (% of Total),CYP1A2 [3],BLQ
same,Enzyme Activities Mean/SD,CYP1A2 [3]; human,123.1/4.8 pmol/h/cm^2
same,Intracellular Metabolite (% of Total),CYP1A2 [4],BLQ
same,Enzyme Activities Mean/SD,CYP1A2 [4]; human,17.4/3.0 pmol/h/cm^2
CC(C)(C)NC(=O)[C@@H]1C[C@@H]2CCCC[C@@H]2CN1C[C@@H](O)[C@H](Cc1ccccc1)NC(=O)[C@H](CC(N)=O)NC(=O)c1ccc2ccccc2n1 [Saquinavir],Fa × Fg in Human (%),[5],25%
same,"recovery at 24 h, 10 µM",[6]; [13],18%
same,F (total oral availability),[7]; clinical,0.04 [8]
same,fe (fraction of renal excretion),[7]; [14],0.01 *
CC(C)c1c(C(=O)Nc2ccccc2)c(-c2ccccc2)c(-c2ccc(F)cc2)n1CC[C@@H](O)C[C@@H](O)CC(=O)O [Atorvastatin],"recovery at 24 h, 10 µM",[6]; [13],43%
O=C1CC2(CCCC2)CC(=O)N1CCCCN1CCN(c2ncccn2)CC1 [Buspirone],Fa × Fg in Human (%),[5],70%
same,"recovery at 24 h, 10 µM",[6]; [13],60%
same,CLp (plasma clearance),[7]; clinical,28.3 [8] mL/min/kg
same,fe (fraction of renal excretion),[7]; clinical,0.45 [19]
COc1ccc2c3c([nH]c2c1)[C@H](CC(C)C)N1C(=O)[C@H](CCC(=O)OC(C)(C)C)NC(=O)[C@@H]1C3 [Ko-143],Effect of inhibitor on the efflux of rosuvastatin,Caco-2 cells [1],strongly reduced
same,Effect of inhibitor on the efflux of rosuvastatin,[2],strongly reduced
CC(C)NCC(O)COc1ccc(CC(N)=O)cc1 (centres unmarked) [Atenolol],Fa × Fg in Human (%),[5],50%
same,"recovery at 24 h, 10 µM",[6]; [13],86%
C[C@]12CC[C@H]3[C@@H](CCC4=CC(=O)CC[C@@]43C)[C@@H]1CC[C@@H]2O [Testosterone],Intracellular Metabolite (% of Total),"CYP3A4; CYP3A4/Testosterone, metabolite 6β-OH-Testosterone",BLQ
Cc1ncc2n1-c1ccc(Cl)cc1C(c1ccccc1F)=NC2 [Midazolam],Fa × Fg in Human (%),[5],59%
same,"recovery at 24 h, 10 µM","[6]; with CYP3A4 inhibitor CYP3cide (1 µM), read-out: Recovery in basal/receiver compartment after 24 h",75.9%
same,"recovery at 24 h, 10 µM",[6]; [13],47%
same,"recovery at 24 h, 10 µM","[6]; EpiIntestinal microtissues, no inhibitor, read-out: Recovery in basal/receiver compartment after 24 h",46.7%
same,1-hydroxymidazolam (CYP3A4-selective metabolite) detected,"[8]; midazolam 10 µM apical, no inhibitor",substantial amount
same,"recovery at 24 h, 10 µM",[9]; no inhibitor,81%
same,"recovery at 24 h, 10 µM",[9]; with CYP3A4 inhibitor CYP3cide (1 µM),87.9%
same,1-hydroxymidazolam (CYP3A4-selective metabolite) detected,Caco-2 cells [10]; midazolam 10 µM apical,negligible amount
same,Intracellular Metabolite (% of Total),"CYP3A4; CYP3A4/Midazolam, metabolite 1-OH-Midazolam",BLQ
same,Enzyme Activities Mean/SD,"CYP3A4; CYP3A4/Midazolam, rate of 1-OH-Midazolam formation in supernatant",BLQ
same,blood plasma ratio,in vitro,0.64
same,F (total oral availability),[7]; clinical,0.4 [8]
same,fe (fraction of renal excretion),[7]; clinical,0 [16]
CCOC(=O)C1=C(C)NC(C)=C(C(=O)OC)C1c1cccc(Cl)c1Cl (centres unmarked) [Felodipine],"recovery at 24 h, 10 µM",[6]; [13],47%
O=C1[C@H](CC[C@H](O)c2ccc(F)cc2)[C@@H](c2ccc(O)cc2)N1c1ccc(F)cc1 [Ezetimibe],Parent (% of parent drug at T0),[11],8.4 % of parent drug at T0
same,Parent (% of parent drug at T0),[12],40.3 % of parent drug at T0
CCN(CC)CC#CCOC(=O)C(O)(c1ccccc1)C1CCCCC1 (centres unmarked) [Oxybutynin],Fa × Fg in Human (%),[5],9%
same,F (total oral availability),[7]; clinical,0.06 [8]
same,fe (fraction of renal excretion),[7]; [14],0 *
same,CLp (plasma clearance),[7]; in vivo,5.1 [15] mL/min/kg
COC(=O)C1=C(C)NC(C)=C(C(=O)OC)C1c1ccccc1[N+](=O)[O-] [Nifedipine],fe (fraction of renal excretion),[7]; in vivo,0 [16]
O=C(c1ccc(OCCN2CCCCC2)cc1)c1c(-c2ccc(O)cc2)sc2cc(O)ccc12 [Raloxifene],Parent (% of parent drug at T0),[11],2.4 % of parent drug at T0
same,Parent (% of parent drug at T0),[12],33.2 % of parent drug at T0
CCc1c2c(nc3ccc(OC(=O)N4CCC(N5CCCCC5)CC4)cc13)-c1cc3c(c(=O)n1C2)COC(=O)[C@]3(O)CC [Irinotecan],"recovery at 24 h, 10 µM",[6]; [13],62%
COc1ccc(CCN2CCC(Nc3nc4ccccc4n3Cc3ccc(F)cc3)CC2)cc1 [Astemizole],Availability in the receiver compartment on co-incubation with CYP2J2 inhibitor,"[8]; 10 µM apical, Ebastein (50 µM)",increased
same,Availability in the receiver compartment on co-incubation with CYP2J2 inhibitor,"Caco-2 cells [10]; 10 µM apical, Ebastein (50 µM)",increased
CC(C)(C)NC(=O)[C@@H]1CN(Cc2cccnc2)CCN1C[C@@H](O)C[C@@H](Cc1ccccc1)C(=O)N[C@H]1c2ccccc2C[C@H]1O [Indinavir],Fa × Fg in Human (%),[5],100%
same,"recovery at 24 h, 10 µM",[6]; [13],53%
same,F (total oral availability),[7]; clinical,0.6 [8]
same,fe (fraction of renal excretion),[7]; clinical,0.085 [16]
